Here are results for 37 compounds from patent US9290457B2, “Substituted dihydropyrimidinones and their use as inhibitors of neutrophil elastase activity” (Boehringer Ingelheim International GmbH, priority 2014, dated 2016).

Some results are limits rather than exact numbers.

For the assay, the target named is neutrophil elastase (Homo sapiens (Human), UniProt P08246). In words: Human Neutrophil Elastase Assay. In kind it is biochemical. The following applies: substrate MeOSuc-Ala-Ala-Pro-Val-AMC.
Chain of neutrophil elastase (P08246 30-247): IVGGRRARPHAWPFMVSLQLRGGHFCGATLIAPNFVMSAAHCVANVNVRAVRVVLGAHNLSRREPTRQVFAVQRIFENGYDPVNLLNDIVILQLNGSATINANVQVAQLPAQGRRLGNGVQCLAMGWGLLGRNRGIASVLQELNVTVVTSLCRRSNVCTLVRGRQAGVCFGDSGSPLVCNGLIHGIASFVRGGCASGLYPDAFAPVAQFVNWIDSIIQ

On to `CCOC(=O)C1=C(C)N(c2cccc(C(F)(F)F)c2)C(=O)N(C)C1c1ccc(C#N)cc1-c1ccnn1C` (stereo not shown) [Example 14.6], for which half-maximal inhibition (IC50) required 3.1 nM.

For `CC(=O)C1=C(C)N(c2cccc(C(F)(F)F)c2)C(=O)N(C)C1c1ccc(C#N)cc1C(=O)N1CC[C@H](N)C1` (stereo partly shown) [Example 2.11], the half-inhibitory concentration (IC50) was less than 1 nM.

Consider `CC(=O)C1=C(C)N(c2cccc(C(F)(F)F)c2)C(=O)N(C)C1c1ccc(C#N)cc1C(=O)N1CCN(C2CC2)CC1` (stereo not shown) [Example 1.81], for which the IC50 came out at 8.8 nM. The compound `CC(=O)C1=C(C)N(c2cccc(C(F)(F)F)c2)C(=O)N(C)C1c1ccc(C#N)cc1C(=O)N(C)Cc1ccon1` (stereo not shown) [Example 1.59] came in with an IC50 of less than 1 nM. To `CC(=O)C1=C(C)N(c2cccc(C(F)(F)F)c2)C(=O)N(C)[C@@H]1c1ccc(C#N)cc1C(=O)NC1CC1` [Example 13.2] belongs less than 1 nM. The same measure for `CCOC(=O)C1=C(C)N(c2cccc(C(F)(F)F)c2)C(=O)N(C)C1c1ccc(C#N)cc1C(=O)N1CCC(N)CC1` (stereo not shown) [Example 4.3]: 4.8 nM.

`CCOC(=O)C1=C(C)N(c2cccc(C(F)(F)F)c2)C(=O)N(C)C1c1ccc(C#N)cc1C(=O)N[C@@H]1C[C@H]1N` (stereo partly shown) [Example 4.7] yielded an IC50 of less than 1 nM. In turn, `CC(=O)C1=C(C)N(c2cccc(C(F)(F)F)c2)C(=O)N(C)C1c1ccc(C#N)cc1C1=CCNCC1` (stereo not shown) [Example 10, 4-[5-Acetyl-3,6-dimethyl-2-oxo-1-(3-trifluoromethyl-phenyl)-1,2,3,4-tetrahydro-pyrimidin-4-yl]-3-(1,2,3,6-tetrahydro-pyridin-4-yl)-benzonitrile] registered an IC50 of less than 1 nM. For the compound `CCOC(=O)C1=C(C)N(c2cccc(C(F)(F)F)c2)C(=O)N(C)C1c1ccc(C#N)cc1C(=O)NC1CCN(C(C)C)C1` (stereo not shown) [Example 3.44], the IC50 worked out at 1.1 nM. The same measure for `CCOC(=O)C1=C(C)N(c2cccc(C(F)(F)F)c2)C(=O)N(C)C1c1ccc(C#N)cc1C(=O)N1CC[C@@H](N(C)C)C1` (stereo partly shown) [Example 3.37]: 2.8 nM.

On to `CC(=O)C1=C(C)N(c2cccc(C(F)(F)F)c2)C(=O)N(C)C1c1ccc(C#N)cc1C(=O)N1CCN(C(C)C)CC1` (stereo not shown) [Example 1.82], for which it took 2.7 nM to reach half-maximal inhibition (IC50).

Compound `C#CCNC(=O)c1cc(C#N)ccc1C1C(C(C)=O)=C(C)N(c2cccc(C(F)(F)F)c2)C(=O)N1C` (stereo not shown) [Example 1.5] returned an IC50 of less than 1 nM. The same measure for `CCOC(=O)C1=C(C)N(c2cccc(C(F)(F)F)c2)C(=O)N(C)C1c1ccc(C#N)cc1C(=O)N1CCNC(C)C1` (stereo not shown) [Example 4.17]: 2 nM.

On to `CC(=O)C1=C(C)N(c2cccc(C(F)(F)F)c2)C(=O)N(C)C1c1ccc(C#N)cc1C(=O)NC(C)c1ccco1` (stereo not shown) [Example 1.51], for which the IC50 amounted to 1.4 nM. To `CC(=O)C1=C(C)N(c2cccc(C(F)(F)F)c2)C(=O)N(C)C1c1ccc(C#N)cc1C(=O)N(C)Cc1cn[nH]c1` (stereo not shown) [Example 1.56] belongs 0.3 nM.

For `CC(=O)C1=C(C)N(c2cccc(C(F)(F)F)c2)C(=O)N(C)C1c1ccc(C#N)cc1C(=O)N1CC2CC1CN2` (stereo not shown) [Example 2.14], the half-inhibitory concentration (IC50) is 5.4 nM.

In turn, `CCOC(=O)C1=C(C)N(c2cccc(C(F)(F)F)c2)C(=O)N(C)C1c1ccc(C#N)cc1C(N)=O` (stereo not shown) [Example 3.3] returned a half-maximal inhibitory concentration (IC50) of 3 nM.

As for `CCOC(=O)C1=C(C)N(c2cccc(C(F)(F)F)c2)C(=O)N(C)C1c1ccc(C#N)cc1C(=O)N1CCNCC1` (stereo not shown) [Example 4, 4-[4-Cyano-2-(piperazine-1-carbonyl)-phenyl]-3,6-dimethyl-2-oxo-1-(3-trifluoromethyl-phenyl)-1,2,3,4-tetrahydro-pyrimidine-5-carboxylic acid ethyl ester], the 50% inhibitory concentration (IC50) is 1.4 nM.

`CCN1CCN(C(=O)c2cc(C#N)ccc2C2C(C(C)=O)=C(C)N(c3cccc(C(F)(F)F)c3)C(=O)N2C)CC1` (stereo not shown) [Example 1.65] yielded an IC50 of 4.1 nM. To `CC(=O)C1=C(C)N(c2cccc(C(F)(F)F)c2)C(=O)N(C)C1c1ccc(C#N)cc1C(=O)N(C)CCN(C)C` (stereo not shown) [Example 1.44] belongs less than 1 nM; to `CC(=O)C1=C(C)N(c2cccc(C(F)(F)F)c2)C(=O)N(C)C1c1ccc(C#N)cc1C(=O)N1Cc2ccncc2C1` (stereo not shown) [Example 1.66], 1.7 nM; to `CCOC(=O)C1=C(C)N(c2cccc(C(F)(F)F)c2)C(=O)N(C)C1c1ccc(C#N)cc1C(=O)NC1CCNCC1` (stereo not shown) [Example 4.2], 1.7 nM. To `CCOC(=O)C1=C(C)N(c2cccc(C(F)(F)F)c2)C(=O)N(C)C1c1ccc(C#N)cc1C(=O)N1CC[C@H](N)C1` (stereo partly shown) [Example 4.13] belongs less than 1 nM; to `CCOC(=O)C1=C(C)N(c2cccc(C(F)(F)F)c2)C(=O)N(C)C1c1ccc(C#N)cc1C(=O)NCCS(C)(=O)=O` (stereo not shown) [Example 3.32], 1.1 nM. To `C#CCNC(=O)c1cc(C#N)ccc1C1C(C(=O)OCC)=C(C)N(c2cccc(C(F)(F)F)c2)C(=O)N1C` (stereo not shown) [Example 3.6] belongs 3 nM. Regarding `CC(=O)C1=C(C)N(c2cccc(C(F)(F)F)c2)C(=O)N(C)C1c1ccc(C#N)cc1C(=O)N1CCn2cnnc2C1` (stereo not shown) [Example 1.74], the IC50 is less than 1 nM. The same measure for `CC(=O)C1=C(C)N(c2cccc(C(F)(F)F)c2)C(=O)N(C)C1c1ccc(C#N)cc1C(=O)NCCS(C)(=O)=O` (stereo not shown) [Example 1.29]: less than 1 nM. `CC(=O)C1=C(C)N(c2cccc(C(F)(F)F)c2)C(=O)N(C)C1c1ccc(C#N)cc1C(=O)NC(C)(C)C#N` (stereo not shown) [Example 1.33] registered a half-inhibitory concentration (IC50) of 1.8 nM.

`CCOC(=O)C1=C(C)N(c2cccc(C(F)(F)F)c2)C(=O)N(C)C1c1ccc(C#N)cc1C(=O)NCCN(C)C` (stereo not shown) [Example 3.35] returned an IC50 of less than 1 nM. The same measure for `CC(=O)C1=C(C)N(c2cccc(C(F)(F)F)c2)C(=O)NC1c1ccc(C#N)cc1-c1ccoc1` (stereo not shown) [Example 11, 4-[5-Acetyl-6-methyl-2-oxo-1-(3-trifluoromethyl-phenyl)-1,2,3,4-tetrahydro-pyrimidin-4-yl]-3-furan-3-yl-benzonitrile]: 4.6 nM; for `CCOC(=O)C1=C(C)N(c2cccc(C(F)(F)F)c2)C(=O)N(C)C1c1ccc(C#N)cc1C1=COCC1` (stereo not shown) [Example 14.4]: 1.9 nM. `CC(=O)C1=C(C)N(c2cccc(C(F)(F)F)c2)C(=O)N(C)C1c1ccc(C#N)cc1C(=O)N1CC[C@@H](N(C)C)C1` (stereo partly shown) [Example 1.63] displayed a 50% inhibitory concentration (IC50) of 1.8 nM. To `CC(=O)C1=C(C)N(c2cccc(C(F)(F)F)c2)C(=O)N(C)C1c1ccc(C#N)cc1C(=O)N1Cc2cnn(C)c2C1` (stereo not shown) [Example 1.71] belongs less than 1 nM.

As to `CCOC(=O)C1=C(C)N(c2cccc(C(F)(F)F)c2)C(=O)N(C)C1c1ccc(C#N)cc1C(=O)N1CC[C@@H](N)C1` (stereo partly shown) [Example 4.12], the 50% inhibitory concentration (IC50) was less than 1 nM. To `CC(=O)C1=C(C)N(c2cccc(C(F)(F)F)c2)C(=O)N(C)C1c1ccc(C#N)cc1C(=O)NC1CCC(O)C1` (stereo not shown) [Example 1.25] belongs 1.1 nM.

The compound `CCOC(=O)C1=C(C)N(c2cccc(C(F)(F)F)c2)C(=O)N(C)C1c1ccc(C#N)cc1-c1ccoc1` (stereo not shown) [Example 14.1] returned an IC50 of 3.2 nM. As to `CC(=O)C1=C(C)N(c2cccc(C(F)(F)F)c2)C(=O)N(C)C1c1ccc(C#N)cc1C(=O)NCc1nnnn1C` (stereo not shown) [Example 1.62], the IC50 was less than 1 nM.

The IC50 is the point on the concentration scale where inhibition reaches its midpoint.
